Consider 17 molecules from patent publication US20250163048A1 (Tango Therapeutics, Inc., priority 2022, published 2025).

Test [1] relates to HAP1 MTAP-intact cell line. Kind of test: SDMA in-cell western assay, HAP1 MTAP-intact. The settings on record: Homo sapiens, HAP1, read-out: Hap1 MTAP intact IC50, SDMA in-cell western, HAP1 MTAP-intact cell line.
Test [2] concerns HAP1 MTAP-deleted cell line. As to the kind of experiment: SDMA in-cell western assay, HAP1 MTAP-deleted. As to conditions: for IC50 / IC90: Homo sapiens; for IC50: HAP1, read-out: Hap1 MTAP deleted IC50, SDMA in-cell western, HAP1 MTAP-deleted cell line; for IC90: HAP1, read-out: Hap1 MTAP deleted IC90, SDMA in-cell western, HAP1 MTAP-deleted cell line; for Hap1 MTAP intact/deleted ratio: IC50 ratio between HAP1 MTAP-intact and HAP1 MTAP-deleted cell line, SDMA in-cell western.

Test [3] relates to MTAP-deleted cell line. As to the kind of experiment: viability assay for the MTAP-deleted cell line. As to conditions: Homo sapiens, HAP1, viability assay. It is filed as cell-based.

The term IC50 denotes the concentration needed to halve the response being measured. What is called IC90 is the point of the concentration-response curve where the effect stands at 90%. For `Cc1ccc([C@H]2CC[C@@H](C)CN2C(=O)C(=O)Nc2cnc(N)c3cn[nH]c23)cn1` [Compound 135, N-(4-amino-1H-pyrazolo[4,3-c]pyridin-7-yl)-2-oxo-2-[(2R,5R)-5-methyl-2-(6-methyl-3-pyridyl)-1-piperidyl]acetamide], the IC50 in test [1] is > 0.05 µM. Further, in test [2], the IC50 is > 0.05 µM, the IC90 is > 0.125 µM and the “Hap1 MTAP intact/deleted ratio” value is “C (“C” indicates an IC50 ratio of less than 15 fold)”. In addition, the IC50 in test [3] is > 1 µM.

For the molecule `C[C@H]1CC[C@H](c2cccc(C(F)(F)F)c2)N(C(=O)C(=O)Nc2cnc(N)c3cn[nH]c23)C1` [Compound 138, N-(4-amino-1H-pyrazolo[4,3-c]pyridin-7-yl)-2-((2R,5S)-5-methyl-2-(3-(trifluoromethyl)phenyl)piperidin-1-yl)-2-oxoacetamide], the IC50 in test [1] was > 0.05 µM; in test [2], 0.005 to 0.05 µM; in test [3] it was < 0.1 µM. The IC90 in test [2] was < 0.075 µM. Moreover, the “Hap1 MTAP intact/deleted ratio” value in test [2] is given as “A (“A” indicates an IC50 ratio greater than or equal to 30 fold)”.

Take `C[C@H]1CC[C@H](c2ccc3cn([C@@H]4CCN(C)C4)nc3c2)N(C(=O)C(=O)Nc2cncc3cn[nH]c23)C1` [Compound 141, 2-((2R,5S)-5-methyl-2-(2-((R)-1-methylpyrrolidin-3-yl)-2H-indazol-6-yl)piperidin-1-yl)-2-oxo-N-(1H-pyrazolo[4,3-c]pyridin-7-yl)acetamide]: the IC50 in test [1] is > 0.05 µM. Moreover, in test [2], the IC50 was < 0.005 µM, the IC90 is < 0.075 µM and the “Hap1 MTAP intact/deleted ratio” value is listed as “A (“A” indicates an IC50 ratio greater than or equal to 30 fold)”. Moreover, the IC50 in test [3] was < 0.1 µM.

As for `C[C@H]1CC[C@H](c2ccc3sc(CC4(C)CCN(C)CC4)nc3c2)N(C(=O)C(=O)Nc2cncc3cn[nH]c23)C1` [Compound 142, 2-((2R,5S)-2-(2-((1,4-dimethylpiperidin-4-yl)methyl)benzo[d]thiazol-5-yl)-5-methylpiperidin-1-yl)-2-oxo-N-(1H-pyrazolo[4,3-c]pyridin-7-yl)acetamide], in test [1], the IC50 was 0.005 to 0.05 µM. Moreover, in test [2], the IC50 was < 0.005 µM, the IC90 is < 0.075 µM and the “Hap1 MTAP intact/deleted ratio” value is given as “B (“B” indicates an IC50 ratio greater than or equal to 15 fold but lower than 30 fold)”. In addition, in test [3], the IC50 was < 0.1 µM.

Consider `C[C@H]1CC[C@H](c2ccc3sc(C4CCOCC4)nc3c2)N(C(=O)C(=O)Nc2cnc(N)c3cn[nH]c23)C1` [Compound 143, N-(4-amino-1H-pyrazolo[4,3-c]pyridin-7-yl)-2-((2R,5S)-5-methyl-2-(2-(tetrahydro-2H-pyran-4-yl)benzo[d]thiazol-5-yl)piperidin-1-yl)-2-oxoacetamide], for which, in test [1], the IC50 lay within 0.005 to 0.05 µM. Further, in test [2], the IC50 was < 0.005 µM, the IC90 was < 0.075 µM and the “Hap1 MTAP intact/deleted ratio” value was “C (“C” indicates an IC50 ratio of less than 15 fold)”. The IC50 in test [3] was < 0.1 µM.

Consider `COc1cc([C@H]2CC[C@H](C)CN2C(=O)C(=O)Nc2cnc(N)c3cn[nH]c23)ccn1` [Compound 145, N-(4-amino-1H-pyrazolo[4,3-c]pyridin-7-yl)-2-oxo-2-[(2R,5S)-2-(2-methoxy-4-pyridyl)-5-methyl-1-piperidyl]acetamide], for which the IC50 in test [1] was 0.005 to 0.05 µM; in test [2], < 0.005 µM; in test [3], < 0.1 µM. The 90% effect concentration (IC90) in test [2] was < 0.075 µM. For the same molecule, in test [2], the “Hap1 MTAP intact/deleted ratio” value is on record as “B (“B” indicates an IC50 ratio greater than or equal to 15 fold but lower than 30 fold)”.

Regarding `CNc1ncc(NC(=O)C(=O)N2C[C@@H](C)CC[C@@H]2c2ccc3scnc3c2)c2[nH]ncc12` [Compound 146, 2-((2R,5S)-2-(benzo[d]thiazol-5-yl)-5-methylpiperidin-1-yl)-N-(4-(methylamino)-1H-pyrazolo[4,3-c]pyridin-7-yl)-2-oxoacetamide], the IC50 in test [1] is > 0.05 µM. In addition, in test [2], the IC50 was 0.005 to 0.05 µM, the IC90 fell in the range of 0.075 to 0.125 µM and the “Hap1 MTAP intact/deleted ratio” value was “A (“A” indicates an IC50 ratio greater than or equal to 30 fold)”. This molecule also registered an IC50 in test [3] of 0.1 to 1 µM.

In the case of `C[C@H]1CC[C@H](c2cccc(OC[C@@H](C)N(C)C)c2)N(C(=O)C(=O)Nc2cnc(N)c3cn[nH]c23)C1` [Compound 149, N-(4-amino-1H-pyrazolo[4,3-c]pyridin-7-yl)-2-((2R,5S)-2-(3-((R)-2-(dimethylamino)propoxy)phenyl)-5-methylpiperidin-1-yl)-2-oxoacetamide], the figures for the IC50 in test [1], in test [2] and in test [3] were 0.005 to 0.05 µM, < 0.005 µM and < 0.1 µM, respectively. Moreover, in test [2], the IC90 was < 0.075 µM. The “Hap1 MTAP intact/deleted ratio” value in test [2] is recorded as “C (“C” indicates an IC50 ratio of less than 15 fold)”.

In the case of `C[C@H]1CC[C@H](c2ccc(F)c(F)c2)N(C(=O)C(=O)Nc2cnc(N)c3cn[nH]c23)C1` [Compound 151, N-(4-amino-1H-pyrazolo[4,3-c]pyridin-7-yl)-2-((2R,5S)-2-(3,4-difluorophenyl)-5-methylpiperidin-1-yl)-2-oxoacetamide], the IC50 in test [1] was > 0.05 µM; in test [2], < 0.005 µM; in test [3], < 0.1 µM. Further, in test [2], the IC90 was < 0.075 µM. For the same molecule, the “Hap1 MTAP intact/deleted ratio” value in test [2] is listed as “A (“A” indicates an IC50 ratio greater than or equal to 30 fold)”.

For the molecule `Cc1cc([C@H]2CC[C@H](C)CN2C(=O)C(=O)Nc2cnc(N)c3cn[nH]c23)cc(C)n1` [Compound 155], in test [1], the IC50 was > 0.05 µM. In test [2], the IC50 was 0.005 to 0.05 µM, the IC90 fell in the range of 0.075 to 0.125 µM and the “Hap1 MTAP intact/deleted ratio” value is “C (“C” indicates an IC50 ratio of less than 15 fold)”. For the same molecule, in test [3], the IC50 was < 0.1 µM.

Turning to `C[C@H]1CC[C@H](c2ccc3sc(C4=CCN(C)CC4)nc3c2)N(C(=O)C(=O)Nc2ccn3ccnc3c2)C1` [Compound 157, N-(imidazo[1,2-a]pyridin-7-yl)-2-((2R,5S)-5-methyl-2-(2-(1-methyl-1,2,3,6-tetrahydropyridin-4-yl)benzo[d]thiazol-5-yl)piperidin-1-yl)-2-oxoacetamide], the IC50 in test [1] is > 0.05 µM. Further, in test [2], the IC50 was < 0.005 µM, the IC90 was < 0.075 µM and the “Hap1 MTAP intact/deleted ratio” value is “A (“A” indicates an IC50 ratio greater than or equal to 30 fold)”. Also, the IC50 in test [3] was < 0.1 µM.

For `C[C@H]1CC[C@H](c2ccc3cn(CCN(C)C)nc3c2)N(C(=O)C(=O)Nc2cncc3cn[nH]c23)C1` [Compound 163, 2-oxo-N-(1H-pyrazolo[4,3-c]pyridin-7-yl)-2-[(2R,5S)-2-[2-[2-(dimethylamino)ethyl]indazol-6-yl]-5-methyl-1-piperidyl]acetamide], the IC50 in test [1] is > 0.05 µM; in test [2], < 0.005 µM; in test [3], < 0.1 µM. The IC90 in test [2] is < 0.075 µM. For the same molecule, the “Hap1 MTAP intact/deleted ratio” value in test [2] is listed as “A (“A” indicates an IC50 ratio greater than or equal to 30 fold)”.

Turning to `C[C@H]1CC[C@H](c2cccc(OC[C@H](C)N(C)C)c2)N(C(=O)C(=O)Nc2cnc(N)c3cn[nH]c23)C1` [Compound 164, N-(4-amino-1H-pyrazolo[4,3-c]pyridin-7-yl)-2-((2R,5S)-2-(3-((S)-2-(dimethylamino)propoxy)phenyl)-5-methylpiperidin-1-yl)-2-oxoacetamide], in test [1], the IC50 lay in the range of 0.005 to 0.05 µM. Besides, in test [2], the IC50 was < 0.005 µM, the concentration for an effect of 90% (IC90) was < 0.075 µM and the “Hap1 MTAP intact/deleted ratio” value is given as “C (“C” indicates an IC50 ratio of less than 15 fold)”. Also, in test [3], the IC50 is < 0.1 µM.

`CC1=C(c2nc3cc([C@H]4CC[C@H](C)CN4C(=O)C(=O)Nc4cncc5cn[nH]c45)ccc3s2)CCN(C)C1` [Compound 165]: in test [1], the IC50 was > 0.05 µM. In test [2], the 50% inhibitory concentration (IC50) is < 0.005 µM, the IC90 is < 0.075 µM and the “Hap1 MTAP intact/deleted ratio” value was “A (“A” indicates an IC50 ratio greater than or equal to 30 fold)”. For the same molecule, the IC50 in test [3] was < 0.1 µM.

For `C[C@H]1CC[C@H](c2cccc(OCCN(C)C)c2)N(C(=O)C(=O)Nc2cnc(N)c3cn[nH]c23)C1` [Compound 166, N-(4-amino-1H-pyrazolo[4,3-c]pyridin-7-yl)-2-((2R,5S)-2-(3-(2-(dimethylamino)ethoxy)phenyl)-5-methylpiperidin-1-yl)-2-oxoacetamide], the IC50 in test [1] is 0.005 to 0.05 µM; in test [2], < 0.005 µM; in test [3] it was < 0.1 µM. Also, the IC90 in test [2] was < 0.075 µM. In test [2], the “Hap1 MTAP intact/deleted ratio” value was “C (“C” indicates an IC50 ratio of less than 15 fold)”.

Consider `Cc1ncc([C@H]2CC[C@H](C)CN2C(=O)C(=O)Nc2cnc(N)c3cn[nH]c23)cc1Cl` [Compound 168], for which the IC50 in test [1] is > 0.05 µM. Moreover, in test [2], the IC50 was < 0.005 µM, the concentration for an effect of 90% (IC90) was < 0.075 µM and the “Hap1 MTAP intact/deleted ratio” value is on record as “C (“C” indicates an IC50 ratio of less than 15 fold)”. For the same molecule, the IC50 in test [3] is < 0.1 µM.

For the molecule `C[C@H]1CC[C@H](c2ccc3ccc(C4CCN(C)CC4)nc3c2)N(C(=O)C(=O)Nc2ccn3ccnc3c2)C1` [Compound 170, N-(imidazo[1,2-a]pyridin-7-yl)-2-((2R,5S)-5-methyl-2-(2-(1-methylpiperidin-4-yl)quinolin-7-yl)piperidin-1-yl)-2-oxoacetamide], the IC50 in test [1] is > 0.05 µM; in test [2] it was 0.005 to 0.05 µM; in test [3], < 0.1 µM. Moreover, the IC90 in test [2] is > 0.125 µM. The “Hap1 MTAP intact/deleted ratio” value in test [2] is “A (“A” indicates an IC50 ratio greater than or equal to 30 fold)”.
